According to US6930088B2, “Conformationally constrained backbone cyclized somatostatin analogs” (Peptor Ltd., priority 1998, dated 2005):
“Also recorded” adds a separate entry of the source.

Columns and labels:
[1] = molecular target: T1, SSTR-1 (Homo sapiens, UniProt P30872); test: Inhibition of 125I-Tyr11-SRIF binding to membrane preparations expressing SSTR-1; details: read-out: Percent inhibition of SRIF-14 binding
T1 construct: expressed in transfected cells
Method: The somatostatin analogs were tested for their potency in inhibition of the binding of ^125I-Tyr^11-SRIF (based on the method described by Raynor et. al., Molecular Pharmacology, 1993, 43, 838-844) to membrane preparations expressing the transmembranal somatostatin receptors (SSTR-1, 2, 3, 4 or 5). The receptor preparations used for these tests were either from the cloned human receptors selectively and stably expressed in Chinese Hamster Ovary (CHO) cells or from cell lines naturally expressing the SSTRs. […] The binding reactions were filtered, the filters were washed and the bound radioactivity was counted in gamma counter. Non specific binding was defined as the radioactivity remaining bound in the presence of 1 μM unlabeled SRIF-14.
(§1) In order to validate positive signals of the binding tests, and to eliminate non-specific signals, samples of irrelevant peptides, such as GnRH, that were synthesized and handled using the same procedures, were tested in the same assays as negative control samples. These samples had no binding activity in any of the assays. Results are shown below in Tables 5 and 6 and FIG. 1.

[2] = system: insulin release; test: In-vivo effect on insulin release; set-up: species or system Wistar male rats
Method: Insulin stimulation was induced by IV bolus administration of D-glucose to overnight fasted rats.
An in-vivo determination of insulin release as a result of peptide administration was measured in Wistar male rats. […] Time course profiles for […] release under constant experimental conditions were measured.
Male Wistar rats were fasted overnight. Animals were anesthetized with Nembutal (IP, 60 mg/kg). Ten minutes after anesthesia, drugs were administrated S.C. at 0.01-100 microgram/kg dose 30 minutes before stimulation of insulin secretion performed by I.V. administration of 0.5 g/kg of D-glucose, 5 minutes before blood collection from abdominal Vena-cava. Hormone levels wer measured by RIA.

[3] = molecular target: T2, SSTR-2 (Homo sapiens, UniProt P30874); test: Inhibition of 125I-Tyr11-SRIF binding to membrane preparations expressing SSTR-2; details: read-out: Percent inhibition of SRIF-14 binding
T2 construct: expressed in transfected cells
Method: (§2) The receptor preparations used for these tests were either from the cloned human receptors selectively and stably expressed in Chinese Hamster Ovary (CHO) cells or from cell lines naturally expressing the SSTRs. […] The binding reactions were filtered, the filters were washed and the bound radioactivity was counted in gamma counter. Non specific binding was defined as the radioactivity remaining bound in the presence of 1 μM unlabeled SRIF-14.
as §1

[4] = molecular target: T3, SSTR-4 (Homo sapiens, UniProt P31391); test: Inhibition of 125I-Tyr11-SRIF binding to membrane preparations expressing SSTR-4; details: SSTR-R4, read-out: Percent inhibition of SRIF-14 binding
T3 construct: expressed in transfected cells
Method: The somatostatin analogs were tested for their potency in inhibition of the binding of ^125I-Tyr^11-SRIF (based on the method described by Raynor et. al., Molecular Pharmacology, 1993, 43, 838-844) to membrane preparations expressing the transmembranal somatostatin receptors (SSTR-1, 2, 3, 4 or 5). The receptor preparations used for these tests were either from the cloned human receptors selectively and stably expressed in Chinese Hamster Ovary (CHO) cells or from cell lines naturally expressing the SSTRs. Typically, cell membranes were homogenated in Tris buffer in the presence of protease inhibitors and incubated for 30-40 minutes with ^125I-Tyr^11-SRIF with different concentrations of the tested sample. The binding reactions were filtered, the filters were washed and the bound radioactivity was counted in gamma counter. Non specific binding was defined as the radioactivity remaining bound in the presence of 1 μM unlabeled SRIF-14.
as §1

[5] = In vitro biostability in renal homogenate (HPLC)
Method: The assay was based on HPLC determination of peptide degradation as a function of time in renal homogenate at 37° C.

[6] = system: CHO cells expressing human cloned SST-R5; test: In-vitro cell-growth inhibition; format: cell-based
Method: Pharmacological evaluation of growth inhibition was performed utilizing CHO cells expressing human cloned SST-R5.

[7] = molecular target: T4, SSTR-5 (Homo sapiens, UniProt P35346); test: Inhibition of 125I-Tyr11-SRIF binding to membrane preparations expressing SSTR-5; details: read-out: Percent inhibition of SRIF-14 binding
T4 construct: expressed in transfected cells
Method: as §2, §1

[8] = Metabolic bio-stability against degradation by enzyme mixtures; format: in vitro ADME; details: in words; renal homogenate, rat liver homogenate and human serum
[9] = system: other G-protein coupled receptors; test: Binding to non-somatostatin G-protein coupled receptors; details: screening vs. Octreotide and SRIF
Text: This characteristic is of great advantageous because binding to non-somatostatin receptors could cause potential adverse effects in the body.
NovaScreen (Hanover, Md.) performed an assessment for nonspecific binding to various G-protein coupled receptor families. Binding studies to Neurokinin, Opiate and Muscarinic receptors were based on a comparison between the native hormone Somatostatin, Ocreotide and PTR 3173.

[10] = system: Opiate receptors; test: Guinea-Pig Ileum met-Enkephalin-evoked twitch contraction; details: preliminary results
[11] = kidney or brush border membranes

T4 sequence (P35346 whole entry): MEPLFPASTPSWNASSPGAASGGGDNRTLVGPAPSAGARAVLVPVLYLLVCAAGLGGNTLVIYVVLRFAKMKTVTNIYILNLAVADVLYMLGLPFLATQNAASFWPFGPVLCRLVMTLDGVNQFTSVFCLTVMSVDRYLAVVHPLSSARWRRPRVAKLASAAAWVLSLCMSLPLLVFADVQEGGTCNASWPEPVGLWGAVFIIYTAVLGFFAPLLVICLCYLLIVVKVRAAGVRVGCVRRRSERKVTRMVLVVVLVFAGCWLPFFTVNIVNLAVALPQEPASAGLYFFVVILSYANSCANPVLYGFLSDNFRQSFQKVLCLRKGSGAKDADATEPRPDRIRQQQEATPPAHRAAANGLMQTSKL
T1 sequence (P30872 whole entry): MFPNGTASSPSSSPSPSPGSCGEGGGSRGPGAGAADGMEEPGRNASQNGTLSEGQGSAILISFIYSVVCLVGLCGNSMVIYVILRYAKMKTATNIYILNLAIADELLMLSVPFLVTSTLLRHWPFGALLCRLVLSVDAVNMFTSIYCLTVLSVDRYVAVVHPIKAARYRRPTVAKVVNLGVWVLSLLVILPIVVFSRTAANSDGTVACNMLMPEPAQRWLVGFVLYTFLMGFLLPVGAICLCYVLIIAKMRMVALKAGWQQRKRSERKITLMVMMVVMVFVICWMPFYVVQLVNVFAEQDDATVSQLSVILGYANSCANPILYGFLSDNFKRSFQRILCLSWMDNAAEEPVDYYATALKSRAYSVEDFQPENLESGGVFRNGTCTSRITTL
T3 sequence (P31391 whole entry): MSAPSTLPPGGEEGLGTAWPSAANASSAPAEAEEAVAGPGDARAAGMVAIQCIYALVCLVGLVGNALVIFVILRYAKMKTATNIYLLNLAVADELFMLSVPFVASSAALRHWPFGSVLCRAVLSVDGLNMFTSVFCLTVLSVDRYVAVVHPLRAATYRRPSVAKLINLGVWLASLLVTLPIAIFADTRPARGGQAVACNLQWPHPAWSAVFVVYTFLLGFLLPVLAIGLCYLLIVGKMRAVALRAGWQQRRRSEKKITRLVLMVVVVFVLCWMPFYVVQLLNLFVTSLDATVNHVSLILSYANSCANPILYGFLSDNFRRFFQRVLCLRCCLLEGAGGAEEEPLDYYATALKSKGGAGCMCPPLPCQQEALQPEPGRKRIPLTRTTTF
T2 sequence (P30874 whole entry): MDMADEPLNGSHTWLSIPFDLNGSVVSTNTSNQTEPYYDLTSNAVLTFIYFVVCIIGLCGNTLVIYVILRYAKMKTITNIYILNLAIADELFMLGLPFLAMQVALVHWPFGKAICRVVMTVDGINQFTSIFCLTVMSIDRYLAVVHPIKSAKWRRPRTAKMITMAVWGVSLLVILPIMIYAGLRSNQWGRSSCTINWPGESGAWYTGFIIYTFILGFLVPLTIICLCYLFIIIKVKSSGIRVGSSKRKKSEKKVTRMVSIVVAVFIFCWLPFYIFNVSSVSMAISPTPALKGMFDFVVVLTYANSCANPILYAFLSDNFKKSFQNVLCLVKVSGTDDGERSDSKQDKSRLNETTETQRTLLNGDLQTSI

**Q.** For `C[C@@H](O)[C@@H]1NC(=O)[C@H](CCCCN)NC(=O)[C@@H](Cc2c[nH]c3ccccc23)NC(=O)[C@H](Cc2c[nH]c3ccccc23)NC(=O)[C@H](Cc2ccccc2)NC(=O)CCCNC(=O)CCCN(CC(N)=O)C(=O)[C@H](Cc2ccccc2)NC1=O` [PTR 3173, GABA*-Phe-Trp-(D)Trp-Lys-Thr-Phe-Gly(C3)-X], which inhibition at 10 pM [1] is on record?
**A.** Its inhibition at 10 pM is 0%.

**Q.** And the inhibition at 0.0001 µM [1]?
**A.** The inhibition at 0.0001 µM was 0%.

**Q.** What about the inhibition at 0.001 µM [1] of the same compound?
**A.** Its inhibition at 0.001 µM is 0%.

**Q.** And the inhibition at 0.01 µM [1]?
**A.** The inhibition at 0.01 µM was 0%.

**Q.** And the inhibition at 0.1 µM [1]?
**A.** The inhibition at 0.1 µM was 5%.

**Q.** What about the inhibition at 1 µM [1] of the same compound?
**A.** The inhibition at 1 µM was 15%.

**Q.** And the “effect on insulin release” value ([2]; 100 micrograms per kilogram, D-glucose stimulation, FIG. 5a)?
**A.** Its value is “inactive on insulin”.

**Q.** What about the “Insulin ID50” value ([2]; Table 4, physiological selectivity) of the same compound?
**A.** Its value is >1000 µg/kg.

**Q.** And the “effect on insulin release” value ([2]; dose of up to 1 milligram per kilogram, FIG. 5b)?
**A.** Its value is “no appreciable effect on insulin”.

**Q.** What about the “effect on insulin (general statement)” value ([2]; in words, no dose stated) of the same compound?
**A.** The value was “lacks the disadvantages of Octreotide such as inhibition of Insulin secretion; also recorded: no considerable effect on insulin”.

**Q.** And the GH/Insulin ([2]; ratio of ID50 values, Table 4)?
**A.** The GH/Insulin was >10,000.

**Q.** And the inhibition at 10 pM [3]?
**A.** Its inhibition at 10 pM is 15%.

**Q.** What about the inhibition at 0.0001 µM [3] of the same compound?
**A.** Its inhibition at 0.0001 µM is 30%.

**Q.** What about the inhibition at 0.001 µM [3] of the same compound?
**A.** Its inhibition at 0.001 µM is 42%.

**Q.** What about the inhibition at 0.01 µM [3] of the same compound?
**A.** Its inhibition at 0.01 µM is 80%.

**Q.** And the inhibition at 0.1 µM [3]?
**A.** The inhibition at 0.1 µM was 95%.

**Q.** And the inhibition at 1 µM [3]?
**A.** Its inhibition at 1 µM is 96%.

**Q.** What about the inhibition at 1 µM ([4]; 10^−6 M) of the same compound?
**A.** Its inhibition at 1 µM is 5%.

**Q.** What about the inhibition at 0.1 µM ([4]; 10^−7 M) of the same compound?
**A.** The inhibition at 0.1 µM was 5%.

**Q.** And the inhibition at 0.01 µM ([4]; 10^−8 M)?
**A.** The inhibition at 0.01 µM was 0%.

**Q.** What about the inhibition at 0.001 µM ([4]; 10^−9 M) of the same compound?
**A.** The inhibition at 0.001 µM was 0%.

**Q.** What about the inhibition at 0.0001 µM ([4]; 10^−10 M) of the same compound?
**A.** The inhibition at 0.0001 µM was 0%.

**Q.** And the inhibition at 10 pM ([4]; 10^−11 M)?
**A.** The inhibition at 10 pM was 0%.

**Q.** What about the “Percent of intact molecule after incubation in renal homogenate” value ([5]; Time 0 hrs, 37° C.) of the same compound?
**A.** Its value is 100%.

**Q.** And the remaining at 1 h [5, 11]?
**A.** The remaining at 1 h was 100%.

**Q.** What about the remaining at 3 h [5, 11] of the same compound?
**A.** Its remaining at 3 h is 100%.

**Q.** What about the remaining at 24 h [5, 11] of the same compound?
**A.** The remaining at 24 h was 100%.

**Q.** What about the growth inhibition [6] of the same compound?
**A.** Its growth inhibition is “significant growth inhibition; also recorded: considerably higher potency of growth inhibition compared to the native hormone and the drug Octreotide”.

**Q.** What about the inhibition at 10 pM [7] of the same compound?
**A.** The inhibition at 10 pM was 20%.

**Q.** What about the inhibition at 0.0001 µM [7] of the same compound?
**A.** The inhibition at 0.0001 µM was 48%.

**Q.** And the inhibition at 0.001 µM [7]?
**A.** The inhibition at 0.001 µM was 63%.

**Q.** What about the inhibition at 0.01 µM [7] of the same compound?
**A.** Its inhibition at 0.01 µM is 82%.

**Q.** And the inhibition at 0.1 µM [7]?
**A.** Its inhibition at 0.1 µM is 95%.

**Q.** What about the inhibition at 1 µM [7] of the same compound?
**A.** Its inhibition at 1 µM is 95%.

**Q.** And the “metabolic bio-stability against degradation by enzymes” value [8]?
**A.** The value was “considerable metabolic bio-stability against degradation by enzymes”.

**Q.** And the “binding to other G-protein coupled receptors” value [9]?
**A.** Its value is “binds significantly less other G-protein coupled receptors than Octreotide”.

**Q.** And the “effect on met-Enkephalin-evoked twitch contraction” value [10]?
**A.** Its value is “did not affect met-Enkephalin-evoked twitch contraction”.
